Ten compounds from BindingDB's records for doi:10.1021/jm960450v (National Cancer Institute-Bethesda, 1997) can be followed below.

Assay [1] addresses T1, Integrase (Human immunodeficiency virus 1, UniProt Q7ZJM1). As to the kind of experiment: Integration of DNA by HIV -1 integrase.
For assay [2], the target named is T1, Integrase. As to the kind of experiment: Inhibitory activity against 3'-processing of DNA by HIV-1 integrase.
Assay [3] deals with T1, Integrase. As to the kind of experiment: Inhibitory activity against 3'-processing of DNA byHIV-1 integrase.

T1 sequence (Q7ZJM1 whole entry): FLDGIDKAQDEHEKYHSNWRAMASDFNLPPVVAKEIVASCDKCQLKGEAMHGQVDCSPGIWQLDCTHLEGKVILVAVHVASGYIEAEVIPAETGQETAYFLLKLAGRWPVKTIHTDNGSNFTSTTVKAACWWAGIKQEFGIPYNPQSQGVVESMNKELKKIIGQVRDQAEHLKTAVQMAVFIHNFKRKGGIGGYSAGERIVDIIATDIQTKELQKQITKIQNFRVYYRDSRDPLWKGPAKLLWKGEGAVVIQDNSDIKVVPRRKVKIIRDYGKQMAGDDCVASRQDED

Usually IC50 stands for the concentration that gives 50% inhibition. `O=c1oc2ccccc2c(O)c1C(c1cc(OCc2ccccc2)cc(OCc2ccccc2)c1)c1c(O)c2ccccc2oc1=O` gave an IC50 against Integrase [1] of 12 µM.
Turning to `O=c1oc2ccccc2c(O)c1C(c1ccc(OCc2ccccc2)cc1)c1c(O)c2ccccc2oc1=O` [3-[4-benzyloxyphenyl(4-hydroxy-2-oxo-2H-3-chromenyl)methyl]-4-hydroxy-2H-2-chromenone], the midpoint of inhibition against Integrase [2], the IC50, lay at 19 µM.
Regarding `CN(C)c1ccc(C(c2c(O)c3ccccc3oc2=O)c2c(O)c3ccccc3oc2=O)cc1`, the IC50 against Integrase [3] worked out at 88 µM; against Integrase [1], 50 µM; against Integrase [2], 100 µM.
For `O=c1oc2ccccc2c(O)c1C(c1ccc([N+](=O)[O-])cc1)c1c(O)c2ccccc2oc1=O`, the IC50 at Integrase [3] was determined as 50 µM.
The compound `O=c1oc2ccccc2c(O)c1C(c1ccco1)c1c(O)c2ccccc2oc1=O` showed an IC50 at Integrase [2] of 34 µM.
With `O=c1oc2ccccc2c(O)c1C(c1ccc(-c2ccccc2)cc1)c1c(O)c2ccccc2oc1=O`, half-maximal inhibition against Integrase [2] (IC50) was put at 14 µM.
In turn, `O=c1oc2ccccc2c(O)c1C(c1cccs1)c1c(O)c2ccccc2oc1=O` yielded an IC50 at Integrase [2] of 100 µM.
Still for that read-out and setting: to `O=c1oc2ccccc2c(O)c1C(c1ccc2c(c1)Cc1ccccc1-2)c1c(O)c2ccccc2oc1=O` [3-[9H-2-fluorenyl(4-hydroxy-2-oxo-2H-3-chromenyl)methyl]-4-hydroxy-2H-2-chromenone] belongs 11 µM.
On the same count and under the same terms, then `O=c1oc2ccccc2c(O)c1Cc1cccc(Cc2c(O)c3ccccc3oc2=O)c1` [4-hydroxy-3-[3-(4-hydroxy-2-oxo-2H-3-chromenylmethyl)benzyl]-2H-2-chromenone], with 34 µM.
In the case of `O=c1oc2ccccc2c(O)c1C(c1ccc2ccccc2c1)c1c(O)c2ccccc2oc1=O`, the results for the IC50 against Integrase [1] and against Integrase [2] were 16 µM and 20 µM, respectively.
